Source: patent US12403132B2, “Methods of treating bone marrow failure syndromes and compositions for use in the same” (The Board of Trustees of the Leland Stanford Junior …, priority 2020, dated 2025)
Each block holds one compound with its values, some of them ahead of it.

Molecular target: T1, NLK (Homo sapiens, UniProt Q9UBE8)
T1 sequence (Q9UBE8 1-527): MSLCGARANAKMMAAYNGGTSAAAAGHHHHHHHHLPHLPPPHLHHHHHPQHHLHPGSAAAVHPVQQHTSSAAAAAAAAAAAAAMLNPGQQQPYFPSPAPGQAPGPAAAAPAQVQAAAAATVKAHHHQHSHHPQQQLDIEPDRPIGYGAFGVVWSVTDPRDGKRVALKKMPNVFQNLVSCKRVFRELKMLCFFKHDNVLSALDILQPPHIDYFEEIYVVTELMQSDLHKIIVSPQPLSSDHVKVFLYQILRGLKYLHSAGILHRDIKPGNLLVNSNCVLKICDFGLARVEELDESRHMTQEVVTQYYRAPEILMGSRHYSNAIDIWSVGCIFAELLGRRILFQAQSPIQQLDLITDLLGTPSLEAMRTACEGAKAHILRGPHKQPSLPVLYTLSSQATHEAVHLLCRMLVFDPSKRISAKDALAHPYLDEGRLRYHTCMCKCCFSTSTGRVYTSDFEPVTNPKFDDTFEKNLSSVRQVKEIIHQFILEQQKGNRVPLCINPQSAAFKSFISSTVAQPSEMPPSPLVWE
Test: Kinase assay of NLK immunopurified from treated differentiating human progenitors
Assay type: cell-based
Parameters: 5000 cells per treatment were lysed and immunopurified NLK was subjected to in vitro kinase assay; endogenous in cells; host or cells: human cord blood CD34+ HSPCs transduced with shLuc / shRPS19 / shRPL11, differentiating in erythroid medium
Conditions: for reduction in kinase activity of NLK immuno-precipitated from treated cultures: RPS19-insufficient human progenitors
Method: FIG. 7. SD208 increases erythroid expansion in human model of DBA through inhibition of NLK and not TGFβ. (a) Differentiating cord blood CD34+ progenitors were transduced with shRNA against luciferase or RPS19 and treated with inhibitors at working concentrations for TGFβ inhibition every three days. Cells were counted and CD235+ erythroid cells were assessed by flow cytometry after 15 days. (b) Prior to flow cytometry, 5000 cells per group were taken from differentiating cultures for NLK kinase assay. (c) CD34+ progenitors were transduced with shRNA against luciferase or RPS19 and non-targeting or siRNA against NLK. After sorting, samples were split into two groups and either treated with vehicle or SD208 every three days. After 15 days cells were counted and subject to flow cytometry to compare the expansion of maturing CD235+ erythroid (left panel) and CD11b+ myeloid cells (right panel). (d) Cord Blood CD34+ progenitors were transduced with shRNA against luciferase (left panel) or RPS19 (right panel) differentiated in erythroid media for 15 days alone, or in the presence of SB525334 or SD208 at 5 μM. Cells were counted and CD235+ erythroid (D—upper) and CD11b+ myeloid cell (D—lower) percentages were determined by flow cytometry. The number of erythroid or myeloid cells is expressed as a percentage of the number of that lineage with no cytokine or drug treatment.
FIG. 8. NLK inhibition increases expansion of erythroid progenitors from human and murine models of DBA. Human cord blood CD34+ progenitors were transduced with lentivirus co-expressing GFP with shRNA against luciferase (shLuc), RPS19 (shRPS19) or RPL11 (shRPL11). After 36 hours cells GFP+ cells were differentiated in erythroid media in the presence or absence of 5 μM SD208 for 15 days. Cells were counted and assessed for cell surface expression of CD235. (a) The percentage of CD235+ cells was multiplied by the cell count and values were compared as a percentage of untreated controls. (b) Normalizing values relative to untreated RPS19-insufficiency progenitors facilitates direct comparison of erythropoiesis between untreated and SD208-treated cultures. (c) Approximately 3000 cells were removed from differentiating treatments at day 6 and NLK activity was assessed. Values were normalized to reflect a fold induction relative to untreated controls. (d) Lin-Kit+ hematopoietic progenitors were obtained from three mouse embryos expressing tetracycline-inducible shRNA against RPS19 at day E14.5 or three untreated mice, and thee mature RPL11^+/+ or three mature RPL11^+/lox mice treated with tamoxifen for eight weeks. Cells were grown in the presence or absence of doxycycline and/or SD208 for eight days prior to counting and assessing for ter119 surface expression. Values were expressed as a percentage relative to untreated controls (e) and directly comparing the effect of SD208 on erythropoiesis in ribosomal-insufficiency by expressing values relative to untreated ribosome-insufficient cultures (f). At day 5 approximately 3000 cells were assayed for NLK kinase assay (g). CD34+ HSPCs were isolated from three healthy control and three DBA patient mononuclear bone marrow aspirates by magnetic bead sorting and differentiated in the presence or absence of SD208 for 14 days. After counting the total cell population, the ratio of CD235+ erythroblasts was determined by flow cytometry and number of CD235+ erythroblasts calculated. This was expressed as a percentage of the average number of erythroid cells present in untreated healthy controls. (h) The direct effect of SD208 on erythroid expansion in DBA patient samples was calculated following normalization of untreated DBA patient samples as 1-fold, (i) At day five, 3000 cells from each of the differentiating cultures was analyzed for NLK activity by kinase assay and are expressed as a fold induction relative to untreated healthy controls. […]

[1] = RPS19-insufficient progenitors, 50 mM metformin, 5 days

NLK activity, NLK phosphorylation, fold of untreated controls (RPL11-insufficiency with SD208 5 μM, 3.0-fold without): 1.2 fold
NLK activity, Myb phosphorylation, fold of untreated controls (RPL11-insufficiency with SD208 5 μM, 4.6-fold without): 1.38 fold
NLK activity, raptor phosphorylation, fold of untreated controls (RPL11-insufficiency with SD208 5 μM, 7.3-fold without): 1.6 fold
NLK activity, NLK phosphorylation, fold of untreated controls (RPS19-insufficiency with SD208 5 μM, 3.5-fold without): 1.2 fold
NLK activity, Myb phosphorylation, fold of untreated controls (RPS19-insufficiency with SD208 5 μM, 5.2-fold without): 1.5 fold
NLK activity, raptor phosphorylation, fold of untreated controls (RPS19-insufficiency with SD208 5 μM, 8.4-fold without): 1.7 fold
reduction in kinase activity of NLK immuno-precipitated from treated cultures: 92.5%
Compound: Fc1ccc(Cl)cc1-c1nc(Nc2ccncc2)c2nccnc2n1 [SD208]

reduction in kinase activity of NLK immuno-precipitated from treated cultures: 61.2%
Compound: Cc1cccc(-c2nn3c(c2-c2ccnc4ccc(C(N)=O)cc24)CCC3)n1 [Galunisertib]

reduction of phosphorylation of NLK [1]: 48.5%
reduction of phosphorylation of c-Myb [1]: 39.8%
reduction of phosphorylation of raptor [1]: 40.2%
Compound: CN(C)C(=N)N=C(N)N [metformin]

reduction in kinase activity of NLK immuno-precipitated from treated cultures: 73.6%
Compound: NC(=O)c1ccc(-c2nc(-c3ccc4c(c3)OCO4)c(-c3ccccn3)[nH]2)cc1 [SB431542]
